From patent publication US11754548B2, “Method of in vitro cellular assay, cell circuit board, and method of manufacturing cell circuit board” (RICOH COMPANY, LTD., priority 2019, dated 2023) come the findings set out here.

Assay [1] deals with cell population A (Mixed Neurons from Healthy Donor) and cell population B (GABAergic Neurons from Healthy Donor), neural cells derived from iPS cells. The assay is described as follows: Action potential measurement (MEA, MED64 system) of the cell circuit board with cell populations A and B connected via neurites, and after cutting the neurites, treated with drug (Example 2). It is filed as cell-based. The procedure: Two types of frozen neural cell which are derived from iPS cells (GABAergic Neurons from Healthy Donor and Mixed Neurons from Healthy Donor) and are commercially available from Elixirgen Scientific were suspended in a medium and plated on a board including an electrode of a multi-electrode array (MEA; SCREEN Holdings Co., Ltd.) coated with 0.05% polyethyleneimine ([…]; manufactured by Sigma) and a 80 μg/mL laminin solution (manufactured by Sigma) in advance. Synchronous firing of the neural cells was checked to be induced by formation of a network after 3 weeks of the culture. A cell population containing more excitable cells and presenting synchronous firing in a short cycle was designated as a cell population A, and a cell population containing many suppressor cells and presenting synchronous firing in a long cycle was designated as a cell population B.
FIG. 4 is a diagram illustrating a test flow in Example 1. First, a board 5 to which partition members 8a and 8b, which are made of dimethylpolysiloxane (PDMS), and frame members 9a and 9b are respectively bonded was prepared so that a region including the cell population A (10) and a region including the cell population B (20) are separated. Next, on the board 5, two types of cell suspension each including the cell population A (10) and the cell population B (20) having different electrophysiological behaviors which were obtained in “1.” were plated in the respective regions surrounded by the frame members 9a and 9b while not mixing these cell populations. In a case where an area of the region was as large as more than 10 mm^2, respective cell suspensions were plated using a micropipette. In a case where an area was as small as 10 mm^2 or less, plating could not be performed manually, and therefore respective cell suspensions were plated using an ink jet bioprinter for cell discharge. […]
The cell population A and the cell population B were cultured for 4 weeks in a state in which they were connected via neurites (a state in which a neural network was formed), and action potentials detectable from the electrodes were measured for 5 minutes with an MED64 system (SCREEN Holdings Co., Ltd.). An electrical waveform was analyzed using software, BurstScope included in the MED64 system. […]
For respective cell populations in “2.” which were treated with the drug, action potentials detectable from the electrodes were measured for 5 minutes with the MED64 system. […]
The neurites between the cell population A and the cell population B were then cut as illustrated in FIG. 4. After cutting, the cells were cultured for 10 minutes in a CO2 incubator and stabilized, and then the action potential was measured again. […]

Assay [2] deals with cell population A (iCell GABANeurons) and cell population B (GABAergic Neurons from Healthy Donor), neural cells derived from iPS cells. The assay is described as follows: Action potential measurement (MEA, MED64 system) of the cell circuit board including an inhibitory GABAergic cell population, connected via neurites, treated with drug (Example 4). It is filed as cell-based. Conditions: 30 μM final concentration, 10 minutes at 37° C.; populations connected via neurites; FIG. 18. As to the method:
A cell circuit board in which the cell population A and the cell population B were disposed to be spaced apart from each other on the board was prepared using the same method as in Example 1 except that frozen neural cells which are derived from iPS cells (iCell GABANeurons) and are commercially available from Cellular Dynamics International were used as the cell population A, and the same cells as in Example 1 (GABAergic Neurons from Healthy Donor) were used as the cell population B.
Using the same method as in Example 1, at the fourth week of the culture, action potentials detectable from the electrodes were measured for 5 minutes in a state in which the cell population A and the cell population B were connected via neurites. A raster plot that visualizes synchronized firing patterns is illustrated in FIG. 17. In addition, FIG. 16 illustrates a raster plot for visualizing firing patterns of respective cell populations cultured by plating on a board alone.
The mixture was allowed to stand for 10 minutes in a CO2 incubator at 37° C.
For respective cell populations in the above section “3.” which were treated with the drug, action potentials detectable from the electrodes were measured for 5 minutes with the MED64 system. The results are illustrated in FIG. 18.

The mark [3] stands for this setting: 10 μM final concentration, 10 minutes at 37° C., populations A and B connected via neurites, FIG. 8.
The mark [4] stands for this setting: 10 μM, neurites between A and B cut, 10 minutes stabilization, FIG. 9.

Regarding `N[C@H](CCCP(=O)(O)O)C(=O)O` [D-AP5, D-(−)-2-amino-5-phosphonopentanoic acid], in assay [1] (setting [3]), the “firing pattern of the cell population A (short-cycle firing)” value is “firing in a short cycle disappeared”; the “synchronization of the firing pattern of cell population A with cell population B” value was “became a firing pattern synchronized in the form of the same cycle and peak as those of the cell population B”. In assay [1] (setting [4]), the “firing pattern of the cell population B after cutting the neurites” value is “does not change” and the “synchronous firing period of the cell population A after cutting the neurites” value is “greatly prolonged”.

Turning to picrotoxin, in assay [2], the “cycle of the synchronous firing pattern compared with before drug treatment” value was “significantly shorter cycle than that before the drug treatment”; the “synchronization between cell population A and cell population B” value is recorded as “remained synchronized”.
